Laboratory results reported in PMC5748279, “Novel Antitubercular 6-Dialkylaminopyrimidine Carboxamides from Phenotypic Whole-Cell High Throughput Screening of a SoftFocus Library: Structure–Activity Relationship and Target Identification Studies” (Journal of Medicinal Chemistry, 2017).
≈ marks a conversion by molar mass, not a printed value. Entries after “also recorded” stand apart in the source; their conditions may differ. Like-named read-outs stand apart in the source and are kept apart here.

Columns and labels:
[1] = tested on: PiniB-LUX reporter (Mtb cell wall biosynthesis); assay type: cell-based; details: luminescence over 7 days, INH control
[2] = tested on: PrecA-LUX reporter (genotoxic compounds); assay type: cell-based; details: luminescence over 7 days, CIPRO control
[3] = tested on: cytochrome bd oxidase knockout mutant strain (cydKO); assay type: cell-based; details: 7H9 GLU ADC medium
[4] = molecular target: Mycobacterium bovis BCG extract proteins (Mycobacterium bovis BCG, UniProt A0A0H3M9Z0); assay: biochemical; assay type: binding
[5] = molecular target: Mycobacterium bovis BCG extract proteins (Mycobacterium bovis BCG, UniProt A1KLS7); assay: biochemical; assay type: binding
[6] = molecular target: Mycobacterium bovis BCG extract proteins (Mycobacterium bovis BCG, UniProt A0A1R3Y5K6); assay: biochemical; assay type: binding
[7] = molecular target: Mycobacterium bovis BCG extract proteins (Mycobacterium bovis BCG, UniProt A0A1R3Y5N8); assay: biochemical; assay type: binding
[8] = tested on: Mycobacterium bovis BCG extract proteins; assay: biochemical; assay type: binding
[9] = molecular target: Mycobacterium bovis BCG extract proteins (Mycobacterium bovis BCG, UniProt O69687); assay: biochemical; assay type: binding
[10] = molecular target: Mycobacterium bovis BCG extract proteins (Mycobacterium bovis BCG, UniProt A0A1R3Y5H4); assay: biochemical; assay type: binding
[11] = molecular target: Mycobacterium bovis BCG extract proteins (Mycobacterium bovis BCG, UniProt A0A1R3Y5J1); assay: biochemical; assay type: binding
[12] = molecular target: Mycobacterium bovis BCG extract proteins (Mycobacterium bovis, UniProt A0A1R3Y5J0); assay: biochemical; assay type: binding
[13] = molecular target: Mycobacterium bovis BCG extract proteins (Mycobacterium bovis BCG, UniProt P9WGQ7); assay: biochemical; assay type: binding
[14] = molecular target: Mycobacterium bovis BCG extract proteins (Mycobacterium bovis BCG, UniProt P9WKC7); assay: biochemical; assay type: binding
[15] = molecular target: Mycobacterium bovis BCG extract proteins (Mycobacterium bovis BCG, UniProt A0A1R3Y6U4); assay: biochemical; assay type: binding
[16] = molecular target: Mycobacterium bovis BCG extract proteins (Mycobacterium bovis BCG, UniProt A1KQG9); assay: biochemical; assay type: binding
[17] = molecular target: Mycobacterium bovis BCG extract proteins (Mycobacterium bovis BCG, UniProt P0A4Z9); assay: biochemical; assay type: binding
BCG_3193 (Rv3169) = BCG_3193 (Rv3169) (Mycobacterium bovis BCG, UniProt A0A1R3Y3B6); assay: biochemical; assay type: binding
BCG_3827 (Rv3768) = assay type: binding, Mycobacterium bovis BCG
[18] = assay type: in vitro ADME
Description: and ultracentrifuged for 4 hours (42000 rpm, 37 °C, Beckman Optima L,80XP). Analyte concentration of all compounds and sample types were determined by means of LC,MS/MS (Agilent Rapid Resolution HPLC, AB SCIEX 4000 QTRAP MS).
4.4) Lipophilicity (LogD7.4)
The lipophilicity assay was performed in triplicate using a shake,flask procedure. 10 mM stock solutions of each test compound were used to spike (100 µM) a 1:1 mixture of phosphate buffer (pH 7.4) and n,octanol. The solutions were shaken vigorously (1500 rpm) on an orbital shaker for 3 hours at room temperature. Thereafter the samples were centrifuged in order to fully separate the two immiscible fluids. The samples were analysed by HPLC,DAD (Agilent 1200 Rapid Resolution HPLC with a diode array detector) and the amount of compound in the buffer and n, octanol were used to determine the partition coefficient, LogD7.4.15
4.5) Parallel Artificial Membrane Permeability Assay (PAMPA):
The PAMPA assay was performed in triplicate in 96,well MultiScreen Filter plates (Millipore, 0.4 µM PCTE Membrane). Membrane filters were pre,coated with 5% hexadecane in hexane and allowed to dry prior to the assay. Membrane integrity marker, Lucifer yellow was added to the apical wells of the pre,coated MultiScreen plate donor/drug solutions containing test compound.
Phosphate buffer (pH7.4) was added to the 96,well acceptor plate. 10 mM test compound was used to spike (1 µM) the donor buffer at physiologically relevant pH's (pH 4, 6.5 and 8), the donor plate slotted into the acceptor plate and incubated (4 hours at room temperature) with gentle shaking (40,50 rpm). Following the incubation, sample from the acceptor wells and theoretical equilibrium wells were transferred to the analysis plate and matrix matched with blank donor buffer. Acetonitrile containing internal standard (carbamazepine, 0.0236 µg/mL) was added to all samples and they were analysed by LC,MS/MS (Agilent Rapid Resolution HPLC, AB SCIEX 4500 MS). The normalised (analyte/internal) peak areas were used to calculate the apparent permeability (Papp). Membrane integrity was assessed by calculating the Papp of Lucifer Yellow […]
chemosensitivity. […]. Thus only viable cells […]
formazan. Formazan crystals are dissolved in DMSO. The test samples were tested in triplicate on […]
experiment. […] Emetine was used […]
as the reference drug in all experiments. The initial concentration of emetine was 100 µg/mL, […]
lowest being 0.001 µg/mL. […] The […]
(§1) the cell viability (data not shown).
GraphPad Prism v.4 software. […]
(§2) expressing the full length hERG channel. Single cell ionic currents were measured in the […]

mice = assay: Toxicity observed in mice on oral dosing; assay type: in vivo; details: higher doses
physchem [19] = assay type: physicochemical
Description: (§3) The kinetic solubility assay was performed using a miniaturised shake flask method. 10 mM stock […]
(§4) DMSO, and to spike (1:50) duplicate aqueous samples of FaSSIF (simulating fasting state biorelevant media, pH 6.5), with a final DMSO concentration of 2%. After shaking for 2 hours at 25 °C, the solutions were filtered and analysed by means of HPLC,DAD (Agilent 1200 Rapid Resolution HPLC with a diode array detector). Best fit calibration curves were constructed using the calibration standards, which were used to determine the aqueous samples’ solubility.13
(§5) 4.2) Microsomal stability
(§6) The metabolic stability assay was performed in duplicate in a 96,well micro titre plate. The test compounds (0.1 µM) were incubated individually in mouse, rat and pooled human liver […]
(§7) the cofactor NADPH (1 mM). Reactions were quenched by adding 300 µL of ice cold acetonitrile containing internal standard (carbamazepine, 0.0236 µg/mL). Test compounds in the supernatant were analysed by means of LC,MS/MS (Agilent Rapid Resolution HPLC, AB SCIEX 4000 QTRAP MS) for the disappearance of parent compound. Metabolite searches were not conducted during the metabolic stability assay.14
(§8) 4.3) Plasma protein binding (PPB) assay
The plasma protein binding assay was performed in a 96,well micro titre plate with pooled human plasma, spiked with test compound (5 µM). An aliquot was immediately removed and quenched using ice cold acetonitrile containing internal standard (carbamazepine, 0.0236 µg/mL), and placed in the freezer. This served as the total concentration sample. After pre,incubation (37 °C for 1 hour) duplicate aliquots of the spiked plasma were transferred to ultra,centrifugation tubes, […]

[20] = Caseum binding using surrogate caseum
in vivo = details: male, C57/BL6, mouse
in vitro [21] = assay type: in vitro ADME; details: human, plasma; PPB assay; read-out: free fraction in human plasma
Description: as §3, §4, §5
The metabolic stability assay was performed in duplicate in a 96,well micro titre plate. […]
the cofactor NADPH (1 mM). […] Test compounds in the supernatant were analysed by means of LC,MS/MS (Agilent Rapid Resolution HPLC, AB SCIEX 4000 QTRAP MS) for the disappearance of parent compound. […]
and ultracentrifuged for 4 hours (42000 rpm, 37 °C, Beckman Optima L,80XP). Analyte concentration of all compounds and sample types were determined by means of LC,MS/MS (Agilent Rapid Resolution HPLC, AB SCIEX 4000 QTRAP MS). […]
The lipophilicity assay was performed in triplicate using a shake,flask procedure. […] The samples were analysed by HPLC,DAD (Agilent 1200 Rapid Resolution HPLC with a diode array detector) and the amount of compound in the buffer and n, octanol were used to determine the partition coefficient, LogD7.4.15 […]

[22] = tested on: Mycobacterium tuberculosis (H37RvMa); assay: microbe, parasite or virus in culture; parameters: MIC99 by standard broth microdilution against M. tuberculosis H37Rv; details: read-out: MIC99 7H9/ADC (æM)
[23] = tested on: Mycobacterium tuberculosis (H37RvMa); assay: microbe, parasite or virus in culture; parameters: MIC99 by standard broth microdilution against M. tuberculosis H37Rv; details: sheet table;, MIC99, GAST/Fe medium, read-out: MIC99 GAST/Fe (æM)
in vitro [24] = details: african green monkey; sheet table;; IC50 on Vero cells, MTT; read-out: Cytotoxicity (æM)
Description: (§9) chemosensitivity. […]. Thus only viable cells
(§10) formazan. Formazan crystals are dissolved in DMSO. The test samples were tested in triplicate on
(§11) experiment. […] Emetine was used
(§12) as the reference drug in all experiments. The initial concentration of emetine was 100 µg/mL,
(§13) lowest being 0.001 µg/mL. […] The
as §1
(§14) GraphPad Prism v.4 software.
Electrophysiologi Table 2 SAR on the Central Core a Kinetic solubility at pH 7.4. b IC50 on Vero cell lines.

physchem [25] = details: sheet table;; kinetic solubility, pH 7.4; aqueous buffer pH 7.4; Kinetic solubility at pH 7.4; read-out: Solubility (æM)
Description: as §3, §4, §5, §6, §7, §8
The plasma protein binding assay was performed in a 96,well micro titre plate with pooled human plasma, spiked with test compound (5 µM). […]

Vero cell lines = assay type: cell-based, African green monkey; details: read-out: Cytotoxicity (IC50 on Vero cell lines)
Description: as §9, §10, §11, §12, §13, §1, §14, §2

[26] = tested on: Mycobacterium tuberculosis (H37RvMa); assay: microbe, parasite or virus in culture; assay type: cell-based; details: for MIC99 7H9/ADC: 7H9/ADC medium; for MIC99 GAST/Fe: GAST/Fe medium

Compound: COc1ccc(NC(=O)c2cc(N(C)Cc3ccccc3)ncn2)cc1 [Compound 1, 6-(Benzyl(methyl)amino)-N-(4-methoxyphenyl)pyrimidine-4-carboxamide]
- PiniB-LUX reporter response [1]: did not elicit a positive response; also recorded: no response
- PrecA-LUX reporter response [2]: delayed (Day 3 onwards) induction of luminescence
- Δcyd 7H9 GLU ADC MIC99 [3]: > 20 µM

Compound: O=C(Nc1ccccc1)c1ccc(=O)n(Cc2ccc(F)cc2)c1 [Compound 25, 1-(4-Fluorobenzyl)-6-oxo-N-phenyl-1,6-dihydropyridine-3-carboxamide]
- IC50 [4]: ≥ 30 µM
- pIC50 [4]: ≤ 4.52
- IC50 [5]: ≥ 30 µM
- pIC50 [5]: ≤ 4.52
- IC50 ([6]; IC50): ≥ 30 µM
- IC50 ([6]; pIC50): ≥ 30.2 µM
- IC50 ([7]; IC50): ≥ 30 µM
- IC50 ([7]; pIC50): ≥ 30.2 µM
- IC50 [8]: ≥ 30 µM
- pIC50 [8]: ≤ 4.52
- IC50 [9]: ≥ 30 µM
- pIC50 [9]: ≤ 4.52
- IC50 [10]: ≥ 30 µM
- pIC50 [10]: ≤ 4.52
- IC50 [11]: ≥ 30 µM
- pIC50 [11]: ≤ 4.52
- IC50 ([12]; IC50): ≥ 30 µM
- IC50 ([12]; pIC50): ≥ 30.2 µM
- IC50 ([13]; IC50): ≥ 30 µM
- IC50 ([13]; pIC50): ≥ 30.2 µM
- IC50 ([14]; IC50): ≥ 30 µM
- IC50 ([14]; pIC50): ≥ 30.2 µM
- IC50 ([15]; IC50): ≥ 30 µM
- IC50 ([15]; pIC50): ≥ 30.2 µM
- IC50 [16]: ≥ 30 µM
- pIC50 [16]: ≤ 4.52
- IC50 [17]: ≥ 30 µM
- pIC50 [17]: ≤ 4.52
- binding of BCG_3193 to the compound beads in presence of free compound (BCG_3193 (Rv3169)): no effect
- IC50 (BCG_3827 (Rv3768)): ≥ 30 µM
- binding of BCG_3827 to the compound beads in presence of free compound (BCG_3827 (Rv3768)): no effect
- pIC50 (BCG_3827 (Rv3768)): ≤ 4.52
- relative abundance 10: Compound competition 0.029 µM 25 (BCG_3827 (Rv3768); 0.029 µM): 1.06
- relative abundance 9: Compound competition 0.117 µM 25 (BCG_3827 (Rv3768); 0.117 µM): 0.70
- relative abundance 8: Compound competition 0.47 µM 25 (BCG_3827 (Rv3768); 0.47 µM): 1.39
- relative abundance 7: Compound competition 1.88 µM 25 (BCG_3827 (Rv3768); 1.88 µM): 1.36
- relative abundance 6: Compound competition 7.5 µM 25 (BCG_3827 (Rv3768); 7.5 µM): 1.52
- relative abundance 5: Compound competition 30 µM 25 (BCG_3827 (Rv3768); 30 µM): 1.12

Compound: CN(Cc1ccc(C(F)(F)F)nc1)c1cc(C(=O)Nc2nncs2)ncn1 [Compound 52, 6-(Methyl((6-(trifluoromethyl)pyridin-3-yl)methyl)amino)-N-(1,3,4-thiadiazol-2-yl)pyrimidine-4-carboxamide]
- PAMPA log Papp [18]: –3.9
- toxicity to mice (mice): toxic to mice when dosed orally above 50 mg/kg
- solubility at 2 h (physchem [19]; pH 6.5, fasted-state simulated intestinal fluid, read-out: FassiF solubility at pH 6.5): > 100 µM
- solubility kinetic at 2 h (physchem [19]; pH 7.4, pH 7.4): > 100 µM
- caseum distribution unbound [20]: 3.6%
- AUC(0-inf) at 24 h (in vivo; iv, 5 mg/kg): 35.1 µM·h
- clearance at 24 h (in vivo; iv, 5 mg/kg): 6.6 mL/min/kg
- AUC(0-inf) at 24 h (in vivo; po, 20 mg/kg): 93.6 µM·h
- half-life (in vivo; po, 20 mg/kg): 3 h
- fraction unbound at 4 h, 5 µM (in vitro [21]): ≤ 0.3

Compound: CC(=O)N1CCN(c2ccc(NC(=O)c3cc(N(C)Cc4ccc(C(F)(F)F)nc4)ncn3)cn2)CC1 [compound 44]
- MIC99 [22]: 4.7 µM (≈ 2.42 µg/mL)
- MIC99 [23]: 2.3 µM (≈ 1.18 µg/mL)
- CC50 (in vitro [24]): > 50 µM
- solubility at 2 h (physchem [25]): < 5 µM

Compound: N-(4-(4-Acetylpiperazin-1-yl)phenyl)-6-(methyl((6-(trifluoromethyl)pyridin-3-yl)methyl)amino)pyrimidine-4-carboxamide [Compound 44]
- IC50 (Vero cell lines): > 50 µM
- solubility kinetic at 2 h (physchem [19]; pH 7.4): <5 µM
- Solubility (physchem [19]; supplementary csv): <5 æM
- MIC99 7H9/ADC [26]: 4.7 µM
- MIC99 7H9/ADC ([26]; supplementary csv): 4.7 æM
- MIC99 GAST/Fe [26]: 2.3 µM
- MIC99 GAST/Fe ([26]; supplementary csv): 2.3 æM
- MIC ([26]; medium not stated): < 5 µM
